# Experimental data: patent publication US6531496B1 (Bayer Aktiengesellschaft, priority 1999, dated 2003)
# What was measured:
# Plasmopara viticola = experiment: Plasmopara test (grapevine)/protective; format: in vivo; conditions: 144 h, protective, evaluated 6 days after inoculation, read-out: Efficacy in %
# Procedure: Plasmopara Test (Grapevine)/Protective Solvent: 47 parts by weight of acetone Emulsifier: 3 parts by weight of alkylaryl polyglycol ether To prepare a suitable active compound preparation, 1 part by weight of active compound is mixed with the stated amounts of solvent and emulsifier, and the concentrate is diluted with water to the desired concentration. To test for protective activity, young plants are sprayed with the active compound preparation at the application rate stated. After the spray coating has dried on, the plants are inoculated with an aqueous spore suspension of Plasmopara viticola and then remain for 1 day in an incubation cabinet at approx. 20° C. and a relative atmospheric humidity of 100%. […] The plants are then moistened and placed in an incubation cabinet for 1 day.
# Venturia inaequalis = experiment: Venturia test (apple)/protective; format: in vivo; conditions: 288 h, protective, evaluated 12 days after inoculation, read-out: Efficacy in %
# Procedure: Venturia Test (Apple)/Protective Solvent: 47 parts by weight of acetone Emulsifier: 3 parts by weight of alkylaryl polyglycol ether To prepare a suitable active compound preparation, 1 part by weight of active compound is mixed with the stated amounts of solvent and emulsifier, and the concentrate is diluted with water to the desired concentration. To test for protective activity, young plants are sprayed with the active compound preparation at the application rate stated. After the spray coating has dried on, the plants are inoculated with an aqueous conidial suspension of the apple scab pathogen Venturia inaequalis and then remain for 1 day in an incubation cabinet at approx. 20° C. and 100% relative atmospheric humidity.
# Penicillium brevicaule = experiment: Minimum inhibitory concentration on malt extract agar; format: cell-based; conditions: 2 weeks at 28° C.; for MIC: Penicillium, 336 h, read-out: Minimum inhibitory concentrations Penicillium brevicaule
# Procedure: (§1) To confirm the activity against fungi (Penicillium brevicaule, Chaetomium globosum, Aspergillus Niger), the minimum inhibitory concentrations (MICs) of agents according to the invention are determined:
# (§2) Active compounds according to the invention are added in concentrations of from 0.1 mg/l to 5 000 mg/l to an agar prepared using malt extract. […] The MIC is the lowest concentration of active compound at which no growth whatsoever by the microbial species used occurs; it is indicated in the table which follows.
# Chaetomium globosum = experiment: as above; format: cell-based; conditions: 2 weeks at 28° C.
# Procedure: as §1, §2
# Aspergillus Niger = experiment: as above; format: cell-based; conditions: 2 weeks at 28° C.
# Procedure: as §1, §2
# [1] = logP by HPLC (EEC Directive 79/831 Annex V. A8, gradient method); format: physicochemical
# [2] = gradient of acetonitrile/0.1% aqueous phosphoric acid, HPLC, gradient method, acetonitrile/0.1% aqueous phosphoric acid, Table 1
# [3] = HPLC, gradient method, acetonitrile/0.1% aqueous phosphoric acid, Table 1
# [4] = Table 4, starting materials of formula (IV)
compound,measurement,setting,value
Cc1cccc(OC2=NS(=O)(=O)CS2)c1 [Example 106],pest or weed control at 250 g/ha,Plasmopara viticola,≥ 90%
same,pest or weed control at 250 g/ha,Venturia inaequalis,≥ 90%
Cc1ccc(OC2=NS(=O)(=O)CS2)cc1 [Example 105],pest or weed control at 250 g/ha,Plasmopara viticola,≥ 90%
same,pest or weed control at 250 g/ha,Venturia inaequalis,≥ 90%
Cc1cc(Cl)cc(OC2=NS(=O)(=O)CS2)c1 [Example 92],Minimum inhibitory concentrations Penicillium brevicaule,Penicillium brevicaule,20 ppm
same,Minimum inhibitory concentrations Chaetomium globosum,Chaetomium globosum,100 ppm
same,Minimum inhibitory concentrations Aspergillus Niger,Aspergillus Niger,100 ppm
O=S1(=O)CSC(Oc2cccc(F)c2)=N1 [Example 111],chromatographic logP,[1]; [2],2.05
same,pest or weed control at 250 g/ha,Venturia inaequalis,≥ 90%
C/C(=N/OC(C)(C)C)c1ccc(OC2=NS(=O)(=O)CS2)cc1 [Example 24],chromatographic logP,[1]; [2],3.98
same,pest or weed control at 250 g/ha,Venturia inaequalis,≥ 90%
O=S1(=O)CSC(Oc2ccc(Cl)cc2)=N1 [Example 93],Minimum inhibitory concentrations Penicillium brevicaule,Penicillium brevicaule,20 ppm
same,MIC,Penicillium brevicaule,10 to 100 µg/mL
same,Minimum inhibitory concentrations Chaetomium globosum,Chaetomium globosum,50 ppm
same,Minimum inhibitory concentrations Aspergillus Niger,Aspergillus Niger,100 ppm
"Cc1cc(Cl)cc(OC2=NS(=O)(=O)CS2)c1 [Example 1, 3-(3-chloro-5-methylphenoxy)-1λ^6,4,2-dithiazole-1,1(5H)-dione]",MIC,Penicillium brevicaule,10 to 100 µg/mL
same,pest or weed control at 250 g/ha,Plasmopara viticola,≥ 90%
same,pest or weed control at 250 g/ha,Venturia inaequalis,≥ 90%
O=S1(=O)CSC(Oc2ccccc2Br)=N1 [Example 108],chromatographic logP,[1]; [2],2.3
same,pest or weed control at 250 g/ha,Venturia inaequalis,≥ 90%
O=S1(=O)CSC(Oc2cccc(Cl)c2Cl)=N1 [Example 101],pest or weed control at 250 g/ha,Plasmopara viticola,≥ 90%
same,pest or weed control at 250 g/ha,Venturia inaequalis,≥ 90%
O=S1(=O)CSC(Oc2ccccc2F)=N1 [Example 110],chromatographic logP,[1]; [2],2.02
same,pest or weed control at 250 g/ha,Venturia inaequalis,≥ 90%
O=S1(=O)CSC(Oc2ccc(Cl)cc2Cl)=N1 [Example 96],pest or weed control at 250 g/ha,Plasmopara viticola,≥ 90%
same,pest or weed control at 250 g/ha,Venturia inaequalis,≥ 90%
O=C(c1ccccc1)c1cccc(OC2=NS(=O)(=O)CS2)c1 [Example 27],chromatographic logP,[1]; [2],2.66
same,pest or weed control at 250 g/ha,Plasmopara viticola,≥ 90%
same,pest or weed control at 250 g/ha,Venturia inaequalis,≥ 90%
O=[N+]([O-])c1ccccc1OC1=NS(=O)(=O)CS1 [Example 128],chromatographic logP,[1]; [2],1.84
same,pest or weed control at 250 g/ha,Plasmopara viticola,≥ 90%
CC(C)(C)c1cccc(OC2=NS(=O)(=O)CS2)c1 [Example 114],chromatographic logP,[1]; [2],3.27
same,pest or weed control at 250 g/ha,Venturia inaequalis,≥ 90%
O=S1(=O)CSC(Oc2cccc(Br)c2)=N1 [Example 119],chromatographic logP,[1]; [2],2.47
same,pest or weed control at 250 g/ha,Plasmopara viticola,≥ 90%
CC(=O)c1ccc(OC2=NS(=O)(=O)CS2)cc1 [Example 21],chromatographic logP,[1]; [2],1.69
same,pest or weed control at 250 g/ha,Plasmopara viticola,≥ 90%
O=S1(=O)CSC(Oc2ccccc2OC(F)(F)F)=N1 [Example 133],chromatographic logP,[1]; [2],2.63
same,pest or weed control at 250 g/ha,Venturia inaequalis,≥ 90%
O=S1(=O)CSC(Oc2ccc(Cl)cc2Cc2ccccc2)=N1 [Example 99],pest or weed control at 250 g/ha,Plasmopara viticola,≥ 90%
CON=C(C1=NOCCO1)c1ccccc1OC1=NS(=O)(=O)CS1 [Example 4],logP,[1]; [3],1.77
COC(=O)C(=NOCC#N)c1ccccc1OC1=NS(=O)(=O)CS1 [Example 7],logP,[1]; [3],1.7
COc1cc(C=Cc2ccccc2)cc(OC2=NS(=O)(=O)CS2)c1 (mixture of isomers) [Example 87],logP,[1]; [3],3.62
O=S1(=O)CSC(Oc2ccccc2CC2=NOCCO2)=N1 [Example 6],logP,[1]; [3],1.69
O=S1(=O)CSC(Oc2ccc3oc(=S)sc3c2)=N1 [Example 141],chromatographic logP,[1]; Table 2,2.64
same,pest or weed control at 250 g/ha,Plasmopara viticola,≥ 90%
same,pest or weed control at 250 g/ha,Venturia inaequalis,≥ 90%
O=S1(=O)CSC(Oc2ccc(SC(F)(F)F)cc2)=N1 [Example 135],logP,[1]; [3],3.07
O=[N+]([O-])c1ccc(C=Cc2cccc(OC3=NS(=O)(=O)CS3)c2[N+](=O)[O-])cc1 (mixture of isomers) [Example 85],logP,[1]; [3],3.28
O=S1(=O)CSC(Oc2ccc(N=Nc3ccccc3)cc2)=N1 [Example 47],logP,[1]; [3],3.47
COc1ccc(C(C)=O)c(OC2=NS(=O)(=O)CS2)c1 [Example 75],logP,[1]; [3],1.83
O=S1(=O)CSC(Oc2ccc(OC(F)(F)F)cc2)=N1 [Example 124],logP,[1]; [3],2.79
CC(C)(C)c1ccc(OC2=NS(=O)(=O)CS2)cc1 [Example 98],pest or weed control at 250 g/ha,Plasmopara viticola,≥ 90%
CCOC(=O)NN=Cc1cccc(OC2=NS(=O)(=O)CS2)c1 [Example 36],logP,[1]; [3],1.79
O=[N+]([O-])c1ccc(C=Cc2cccc(OC3=NS(=O)(=O)CS3)c2)c([N+](=O)[O-])c1 (mixture of isomers) [Example 81],logP,[1]; [3],3.22
CSC1=NS(=O)(=O)CC(c2ccccc2)S1 (stereo not shown) [IV-6],chromatographic logP,[1]; [4],2.54
Cc1cc(OC2=NS(=O)(=O)CS2)ccc1N [Example 137],logP,[1]; [3],0.83
O=S1(=O)CSC(Oc2ccccc2Cl)=N1 [Example 95],pest or weed control at 250 g/ha,Plasmopara viticola,≥ 90%
same,pest or weed control at 250 g/ha,Venturia inaequalis,≥ 90%
CC(=NOCc1ccccc1)c1cccc(OC2=NS(=O)(=O)CS2)c1 [Example 25],logP,[1]; [3],3.67
Cc1cccc(C)c1OC1=NS(=O)(=O)CS1 [Example 123],logP,[1]; [3],2.57
CC1(C)Cc2cccc(OC3=NS(=O)(=O)CS3)c2O1 [Example 158],chromatographic logP,[1]; Table 2,2.66
O=S1(=O)CSC(Oc2ccc(OC3=NS(=O)(=O)CS3)cc2)=N1 [Example 88],logP,[1]; [3],1.88
C=CCO/N=C(/c1ccccc1)c1cccc(OC2=NS(=O)(=O)CS2)c1 [Example 42],chromatographic logP,[1]; [2],3.72
same,pest or weed control at 250 g/ha,Plasmopara viticola,≥ 90%
CSC1=NS(=O)(=O)C(C)S1 (stereo not shown) [IV-3],chromatographic logP,[1]; [4],1.38
O=C(c1ccc(OC2=NS(=O)(=O)CS2)cc1)c1ccc(-c2ccccc2)cc1 [Example 70],logP,[1]; [3],3.72
CO/N=C(/c1ccccc1)c1cccc(OC2=NS(=O)(=O)CS2)c1 [Example 41],chromatographic logP,[1]; [2],3.28
same,pest or weed control at 250 g/ha,Plasmopara viticola,≥ 90%
Cc1ccc(Cl)c(OC2=NS(=O)(=O)CS2)c1 [Example 115],chromatographic logP,[1]; [2],2.62
same,pest or weed control at 250 g/ha,Venturia inaequalis,≥ 90%
O=S1(=O)CSC(Oc2cccc(C3=NOCCO3)c2)=N1 [Example 56],logP,[1]; [3],1.86
C/C(=N/OC(C)(C)C)c1cccc(OC2=NS(=O)(=O)CS2)c1 [Example 28],chromatographic logP,[1]; [2],3.94
same,pest or weed control at 250 g/ha,Plasmopara viticola,≥ 90%
same,pest or weed control at 250 g/ha,Venturia inaequalis,≥ 90%
COc1cccc(OC2=NS(=O)(=O)CS2)c1OC [Example 118],logP,[1]; [3],2.12
O=S1(=O)CSC(Oc2c(Cl)cccc2Cl)=N1 [Example 102],pest or weed control at 250 g/ha,Plasmopara viticola,≥ 90%
N#CC(C#N)=Cc1cccc(OC2=NS(=O)(=O)CS2)c1 [Example 38],logP,[1]; [3],1.59
N#CCc1ccccc1OC1=NS(=O)(=O)CS1 [Example 8],logP,[1]; [3],1.68
O=S1(=O)CSC(Oc2ccc(N=Nc3ccccc3)cc2OC2=NS(=O)(=O)CS2)=N1 [Example 51],logP,[1]; [3],3.06
COc1ccc(OC2=NS(=O)(=O)CS2)cc1OC [Example 117],logP,[1]; [3],1.82
COc1cc(C=CN2C(=O)c3ccccc3C2=O)ccc1OC1=NS(=O)(=O)CS1 (mixture of isomers) [Example 79],logP,[1]; [3],2.63
CC1(c2ccccc2)CS(=O)(=O)N=C(Cl)S1 (stereo not shown) [II-a-2],chromatographic logP,"[1]; Table 3, intermediates of formula (II-a)",2.75
O=C(c1ccc(Cl)cc1)c1ccc(OC2=NS(=O)(=O)CS2)cc1 [Example 86],logP,[1]; [3],3.17
Cc1cc(OC2=NS(=O)(=O)CS2)cc(C)c1SC#N [Example 60],logP,[1]; [3],2.55
